This note sets out measurements from article PMC10006239, “C–N bond formation by a polyketide synthase” (Nature Communications, 2023).

Assay [1] addresses CalA3 (Streptomyces chartreusis NRRL 3882). As to the kind of experiment: cryo-EM structure; purified CalA3 at ~4 mg/mL in 50 mM Tricine pH 8.0 with 1 mM 3-HAA and SNAC-N1 (further samples at ~4.5 mg/mL with amidation or hydrolysis product and 3-HAA); Titan Krios 300 kV, K3 detector; homodimer.
Assay [2] deals with T1, CalA3 (Streptomyces chartreusis, UniProt A0A2N9BJK0).
T1 construct: gene SCNRRL3882_6975; full length, gene 5178 bp, C-terminal 6xHis tag (pET28a), E. coli BAP1; about 180 kDa per chain, homodimer about 360 kDa; domains DD-KS-LD-AT-DH-psiKR/KR, no ACP
As to the kind of experiment: cryo-EM structure, […] Å. It counts as binding. To be noted: KS substrate tunnel, chain A only; specimen also contained 3-HAA; PDB id assigned by order of listing.

Assay [3] deals with T1, CalA3. Put plainly: HPLC turnover assay at […] nm, products confirmed by LC-HRMS and NMR. It counts as biochemical. Particulars: 5 µM CalA3, 0.15 mM SNAC-N1, 0.5 mM 3-HAA, 25 mM Tricine pH 7.5, 30 °C, 13 h; amidation and hydrolysis.
For assay [4], the target named is T1, CalA3. As to the kind of experiment: cryo-EM structure, […] Å. It counts as binding. To be noted: KS substrate tunnel, chains A and B; specimen also contained 3-HAA; PDB id assigned by order of listing.

T1 sequence (A0A2N9BJK0 1-1727): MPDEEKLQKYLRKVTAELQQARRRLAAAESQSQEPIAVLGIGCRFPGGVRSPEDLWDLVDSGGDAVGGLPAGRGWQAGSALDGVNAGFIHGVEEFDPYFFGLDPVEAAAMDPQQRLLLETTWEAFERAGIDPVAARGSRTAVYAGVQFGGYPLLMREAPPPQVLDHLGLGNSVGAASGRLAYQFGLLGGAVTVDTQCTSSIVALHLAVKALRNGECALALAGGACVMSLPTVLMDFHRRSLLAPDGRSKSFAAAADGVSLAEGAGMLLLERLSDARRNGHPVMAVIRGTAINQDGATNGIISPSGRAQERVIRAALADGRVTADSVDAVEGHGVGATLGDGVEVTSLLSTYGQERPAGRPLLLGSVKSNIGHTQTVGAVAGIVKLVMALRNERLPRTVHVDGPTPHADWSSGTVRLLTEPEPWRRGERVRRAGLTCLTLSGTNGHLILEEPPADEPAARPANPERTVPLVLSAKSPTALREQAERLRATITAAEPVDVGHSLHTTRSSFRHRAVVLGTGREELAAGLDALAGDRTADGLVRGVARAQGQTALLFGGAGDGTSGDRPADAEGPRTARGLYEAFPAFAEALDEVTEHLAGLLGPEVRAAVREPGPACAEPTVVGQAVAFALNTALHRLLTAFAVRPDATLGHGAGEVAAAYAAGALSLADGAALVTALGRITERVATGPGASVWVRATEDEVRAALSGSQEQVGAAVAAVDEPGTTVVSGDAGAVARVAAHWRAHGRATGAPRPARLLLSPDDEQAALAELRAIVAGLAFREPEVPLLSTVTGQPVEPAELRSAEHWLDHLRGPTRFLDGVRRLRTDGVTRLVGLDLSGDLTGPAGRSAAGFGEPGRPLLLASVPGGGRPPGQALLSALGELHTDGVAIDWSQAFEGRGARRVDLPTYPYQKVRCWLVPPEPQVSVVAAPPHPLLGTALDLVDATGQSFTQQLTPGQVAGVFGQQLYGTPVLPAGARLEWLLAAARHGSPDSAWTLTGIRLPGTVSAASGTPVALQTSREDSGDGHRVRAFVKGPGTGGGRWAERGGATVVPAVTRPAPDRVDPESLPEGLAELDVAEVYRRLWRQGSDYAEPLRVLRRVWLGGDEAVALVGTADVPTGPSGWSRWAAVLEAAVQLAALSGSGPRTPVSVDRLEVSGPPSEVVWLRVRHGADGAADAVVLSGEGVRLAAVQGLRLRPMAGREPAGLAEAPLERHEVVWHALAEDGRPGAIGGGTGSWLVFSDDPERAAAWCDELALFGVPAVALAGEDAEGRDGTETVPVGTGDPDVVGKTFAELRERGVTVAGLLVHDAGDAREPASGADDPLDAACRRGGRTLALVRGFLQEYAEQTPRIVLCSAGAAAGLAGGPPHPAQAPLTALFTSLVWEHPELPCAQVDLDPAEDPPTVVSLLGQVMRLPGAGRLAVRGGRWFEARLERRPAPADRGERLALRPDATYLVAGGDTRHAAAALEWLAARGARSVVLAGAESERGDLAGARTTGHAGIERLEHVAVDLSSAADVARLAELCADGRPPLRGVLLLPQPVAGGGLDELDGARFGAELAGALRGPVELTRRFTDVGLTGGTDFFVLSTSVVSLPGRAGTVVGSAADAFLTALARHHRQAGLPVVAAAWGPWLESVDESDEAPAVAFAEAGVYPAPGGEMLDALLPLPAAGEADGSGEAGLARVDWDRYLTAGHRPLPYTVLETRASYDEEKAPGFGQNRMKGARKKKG

Usually stoichiometry N stands for the number of molecules, sites or subunits per partner or assembly. As for CalA3 (enzyme), the stoichiometry N in assay [1] came to 2.

With `O=C(O)CCCCCCCCCC(=O)c1ccc[nH]1` [compound 2, 11-oxo-11-(pyrrol-2-yl) undecanoic acid], the “cryo-EM structure, 3.97 Å” value at CalA3 [2] is recorded as “the hydrolysis product was captured only in the KS domain of chain A”.

With `CC(=O)NCCSC(=O)CCCCCCCCCC(=O)c1ccc[nH]1` [compound 1, SNAC-N1], the “HPLC turnover assay at 290 nm, products confirmed by LC-HRMS and NMR” value on CalA3 [3] was “SNAC-N1 and 3-HAA were incubated with CalA3, and a total of three peaks were detected”.

For `O=C(CCCCCCCCCC(=O)c1ccc[nH]1)Nc1c(O)cccc1C(=O)O` [compound 3, amidation product], the “cryo-EM structure, 3.84 Å” value on CalA3 [4] was “the amidation products were captured in the KS domains of both chain A and B”.
